Experimental data taken from patent US20260273025A1, “TREATMENT AND PREVENTION OF OSTEOPOROSIS IN HIGH BODY MASS INDEX INDIVIDUALS” (Radius Health, Inc., priority 2021, published 2026).
Entries after “also recorded” stand apart in the source; their conditions may differ.

Assays:
[1] = test system: subjects treated with abaloparatide; experiment: Abaloparatide for 18 months followed by anti-resorptive therapy: fracture risk; type: in vivo, human; settings: abaloparatide 18 months followed by anti-resorptive therapy (e.g., alendronate for 6 months)
[2] = test system: postmenopausal osteoporotic women; experiment: ACTIVE Phase 3 trial, post hoc high BMI subgroup: new vertebral fractures; type: in vivo, human; settings: overweight population, 18 months; for relative risk reduction of new vertebral fractures versus placebo: abaloparatide 80 μg or teriparatide 20 μg daily subcutaneous
Method: (§1) The ACTIVE pivotal Phase 3 fracture prevention trial for the PTHrP analogue abaloparatide, Study BA058-05-003 (see ClinicalTrials.gov), was a randomized, double-blind, placebo-controlled trial in postmenopausal osteoporotic women randomized to receive daily doses of one of the following for 18 months: 80 micrograms (μg) of abaloparatide; a matching placebo; or the approved daily dose of 20 μg of teriparatide. Treatment with abaloparatide at a daily dose of 80 μg or placebo remained blinded to all parties throughout the study. Teriparatide used was a proprietary prefilled drug and device combination that could not be repackaged. Therefore, its identity could not be blinded to treating physicians and patients once use began. Study medication was self-administered daily by subcutaneous injection for a maximum of 18 months. All enrolled patients also received calcium and vitamin D supplementation from the time of enrollment until the end of the treatment period. It was recommended to patients that they also continue these supplements through the one-month follow-up period.
(§2) The trial completed enrollment in March 2013 with 2,463 patients at 28 medical centers in 10 countries in the United States, Europe, Latin America, and Asia. In a post hoc analysis, a subgroup of overweight patients, patients with high BMI (≥27 kg/m^2, ≥24 kg/m^2 for Asian patients) was evaluated. The baseline characteristics of this sub-group of patients are detailed in Table 1 below.
(§3) The study enrolled otherwise healthy ambulatory women aged 49 to 86 (inclusive) who had been postmenopausal for at least five years, met the study entry criteria, and had provided written informed consent. […] All patients were to be in good general health as determined by medical history, physical examination (including vital signs), and clinical laboratory testing. This study population contained a patient population reflective of the type of severe osteoporosis patients that specialists would be expected to treat in their practices.
The study endpoints included BMD, new vertebral fractures, nonvertebral fractures (fractures excluding those of the spine, sternum, patella, digits, skull, and face and those with high trauma), any clinical fractures (all fractures causing a patient to seek medical care), and major osteoporotic fractures (fractures of the upper arm, wrist, hip, or clinical spine). […] Time to first incident nonvertebral, clinical, major osteoporotic, and wrist fracture assessed using Kaplan-Meier (KM) method; log-rank test (intent-to-treat [ITT] population). Change from baseline BMD evaluated for total hip, femoral neck, and lumbar spine (missing data points imputed by last observation carried forward; ITT population).

[3] = test system: ovariectomy-induced osteopenic rats; settings: cited from earlier work
[4] = test system: postmenopausal osteoporotic women; experiment: ACTIVE Phase 3 trial, post hoc high BMI subgroup: nonvertebral, clinical, major osteoporotic and wrist fractures (Kaplan-Meier); type: in vivo, human
Method: as §1, §2, §3
(§4) The study endpoints included BMD, new vertebral fractures, nonvertebral fractures (fractures excluding those of the spine, sternum, patella, digits, skull, and face and those with high trauma), any clinical fractures (all fractures causing a patient to seek medical care), and major osteoporotic fractures (fractures of the upper arm, wrist, hip, or clinical spine). New vertebral fracture compared using Fisher exact test (modified intent-to-treat [mITT] population; participants with pretreatment/postbaseline spine x-rays). Time to first incident nonvertebral, clinical, major osteoporotic, and wrist fracture assessed using Kaplan-Meier (KM) method; log-rank test (intent-to-treat [ITT] population). Change from baseline BMD evaluated for total hip, femoral neck, and lumbar spine (missing data points imputed by last observation carried forward; ITT population).

[5] = test system: postmenopausal osteoporotic women; experiment: ACTIVE Phase 3 trial, post hoc high BMI subgroup: safety, treatment-emergent adverse events; type: in vivo, human; settings: for Creatine renal clearance increased, (%): human
Method: as §1, §2
Safety evaluations performed in the ACTIVE trial included physical examinations, vital signs, 12-lead electrocardiograms, or ECGs, clinical laboratory tests and monitoring, and recording of adverse events. Specific safety assessments included pre-dose and post-dose (four hours) determination of serum calcium, determination of creatinine clearance, post-dose ECG assessments at selected visits, and assessments of postural hypotension (60 minutes post-dose) at selected clinic visits.
The ACTIVE trial also evaluated several potential safety measures. The treatment-emergent adverse events (TEAEs) reported by the overweight patients are summarized below in Table 2 for groups treated with placebo, abaloparatide, and teriparatide, respectively.

[6] = test system: subjects treated with abaloparatide; experiment: Trabecular bone score (TBS) in treated subjects; type: in vivo, human
Source text: TBS is also a predictor of fragility fractures of the spine and hip in postmenopausal overweight women independent of BMD and other major clinical risk factors. As such, it captures additional patients at risk of fracture that are missed by BMD alone, and together with BMD more accurately captures bone strength.

[7] = test system: postmenopausal osteoporotic women; experiment: ACTIVE Phase 3 trial, post hoc high BMI subgroup: BMD percent change from baseline; type: in vivo, human; settings: for BMD increase as compared to placebo: total hip, femoral neck, lumbar spine
Method: as §1, §2, §3, §4

[8] = test system: ovariectomy-induced osteopenic monkeys; settings: cited from earlier work
[9] = test system: subjects treated with abaloparatide; experiment: Bone turnover markers PINP and CTX in treated subjects; type: in vivo, human
[10] = overweight population, 18 months
[11] = overweight patients, abaloparatide n = 262, teriparatide n = 281
[12] = overweight patients, 6, 12 and 18 months

In the case of abaloparatide, the “fracture risk versus placebo for 18 months followed by similar anti-resorptive therapy” value [1] is reported as “significant reduction”, the “new vertebral fractures, reduction vs. placebo” value [2] is reported as “statistically significant reduction; also recorded: significant risk reduction” and the “relative risk reduction of new vertebral fractures versus placebo” value [2] is reported as 81%. The bone loss [3] was “complete reversal of bone loss”, the “clinical fractures, reduction versus placebo” value [4, 10] was “statistically significant reduction; also recorded: numerical reduction” and the “major osteoporotic fractures (MOF), reduction versus placebo (Kaplan-Meier estimated cumulative incidence)” value [4, 10] was “statistically significant reduction; also recorded: significant risk reduction”. For the same compound, the “non-vertebral fractures (NVF), reduction versus placebo (Kaplan-Meier estimated cumulative incidence)” value [4, 10] was “statistically significant reduction; also recorded: significant risk reduction”, the “wrist fracture, reduction versus placebo” value [4, 10] was “numerical reduction” and the “effect on NVF, clinical fractures, MOF and wrist fractures compared with teriparatide” value ([4]; overweight population, all categories) was “significantly better than teriparatide”. The “risk of major osteoporotic fracture and any clinical fracture, irrespective of baseline fracture probability (FRAX)” value ([4]; postmenopausal overweight women) was “significantly decrease”, the “Creatine renal clearance increased, (%)” value ([5]; in vivo) was “(5.7) %” and the “Arthralgia, (%)” value ([5]; in vivo) was “(9.2) %”. The “Back pain, (%)” value ([5]; in vivo) was “(8.0) %”, the “Discontinuations, (%)” value ([5]; in vivo) was “(5.7) %” and the “Dizziness, (%)” value ([5]; in vivo) was “(11.1) %”. For the same compound, the “Urinary tract infection, (%)” value ([5]; in vivo) was “(6.9) %”, the “≥1 TEAE, (%)” value ([5]; in vivo) was “(91.6) %” and the “Deaths, (%)” value [5, 11] was “(0.8) %”. The “Headache, (%)” value [5, 11] was “(5.0) %”, the “Hypercalciuria, (%)” value [5, 11] was “(9.5) %” and the “Hypertension, (%)” value [5, 11] was “(9.5) %”. For the same compound, the “Influenza, (%)” value [5, 11] was “(6.1) %”, the “Nasopharyngitis, (%)” value [5, 11] was “(5.0) %” and the “Nausea, (%)” value [5, 11] was “(6.1) %”. The “Pain in extremity, (%)” value [5, 11] was “(6.9) %”, the “Serious TEAEs, (%)” value [5, 11] was “(13.7) %” and the “Upper respiratory tract infection, (%)” value [5, 11] was “(8.8) %”. For the same compound, the “trabecular bone score (TBS)” value ([6]; daily dose of 20 μg, 40 μg or 80 μg for 12 weeks to 24 weeks) was “significantly increase TBS”, the “trabecular bone score (TBS)” value ([6]; human, in vivo) was “significant increase” and the “lumbar spine BMD versus placebo” value ([7]; at 6 months and 12 months) was “statistically significant increase”. The “lumbar spine BMD” value ([7]; at 18 months) was “non-statistically significant BMD increase”, the “BMD increase at total hip as compared to teriparatide” value [7, 12] was “significantly greater BMD increase” and the “BMD increase for lumbar spine as compared to teriparatide” value ([7]; overweight patients, 6 months) was “significantly greater BMD increase”. The “BMD increase at the femoral neck as compared to teriparatide” value ([7]; overweight patients, 12 and 18 months) was “significantly greater BMD increase”, the “BMD increase as compared to placebo” value [7, 12] was “significant improvements” and the “BMD increase as compared to placebo” value ([7]; overweight patients, 6, 12 and 18 months, listed as abaloparatide) was “significantly greater BMD increase”. For the same compound, the “BMD in total hip and femoral neck versus teriparatide or placebo” value ([7]; treated for 18 months) was “significant BMD increase”, the bone loss [8] was “complete reversal of bone loss” and the “CTX marker (bone resorption)” value ([9]; at 18 months) was “quick return to the baseline”. The “bone formation marker PINP” value ([9]; human, in vivo) was “earlier increase”.
In the case of `CC[C@H](C)[C@H](NC(=O)[C@H](CCC(=O)O)NC(=O)[C@H](CO)NC(=O)[C@@H](NC(=O)[C@@H](N)CO)C(C)C)C(=O)N[C@@H](CCC(N)=O)C(=O)N[C@@H](CC(C)C)C(=O)N[C@@H](CCSC)C(=O)N[C@@H](Cc1cnc[nH]1)C(=O)N[C@@H](CC(N)=O)C(=O)N[C@@H](CC(C)C)C(=O)NCC(=O)N[C@@H](CCCCN)C(=O)N[C@@H](Cc1cnc[nH]1)C(=O)N[C@@H](CC(C)C)C(=O)N[C@@H](CC(N)=O)C(=O)N[C@@H](CO)C(=O)N[C@@H](CCSC)C(=O)N[C@@H](CCC(=O)O)C(=O)N[C@@H](CCCN=C(N)N)C(=O)N[C@H](C(=O)N[C@@H](CCC(=O)O)C(=O)N[C@@H](Cc1c[nH]c2ccccc12)C(=O)N[C@@H](CC(C)C)C(=O)N[C@@H](CCCN=C(N)N)C(=O)N[C@@H](CCCCN)C(=O)N[C@@H](CCCCN)C(=O)N[C@@H](CC(C)C)C(=O)N[C@@H](CCC(N)=O)C(=O)N[C@@H](CC(=O)O)C(=O)N[C@H](C(=O)N[C@@H](Cc1cnc[nH]1)C(=O)N[C@@H](CC(N)=O)C(=O)N[C@@H](Cc1ccccc1)C(=O)O)C(C)C)C(C)C` [Teriparatide, teriparatide], the “new vertebral fractures, reduction vs. placebo” value [2] is reported as “significant reduction”, the “relative risk reduction of new vertebral fractures versus placebo” value [2] is reported as 74% and the “major osteoporotic fractures (MOF), reduction versus placebo (Kaplan-Meier estimated cumulative incidence)” value [4, 10] is reported as “Significant reduction”. The “non-vertebral fractures (NVF), reduction versus placebo (Kaplan-Meier estimated cumulative incidence)” value [4, 10] was “Significant reduction”, the “Creatine renal clearance increased, (%)” value ([5]; in vivo) was “(4.6) %” and the “Arthralgia, (%)” value ([5]; in vivo) was “(7.1) %”. For the same compound, the “Back pain, (%)” value ([5]; in vivo) was “(7.5) %”, the “Discontinuations, (%)” value ([5]; in vivo) was “(7.5) %” and the “Dizziness, (%)” value ([5]; in vivo) was “(8.2) %”. The “Headache, (%)” value ([5]; in vivo) was “(6.8) %”, the “Hypercalciuria, (%)” value ([5]; in vivo) was “(9.3) %” and the “Hypertension, (%)” value ([5]; in vivo) was “(6.4) %”. The “Nasopharyngitis, (%)” value ([5]; in vivo) was “(5.3) %”, the “Nausea, (%)” value ([5]; in vivo) was “(3.9) %” and the “Pain in extremity, (%)” value ([5]; in vivo) was “(3.6) %”. The “Serious TEAEs, (%)” value ([5]; in vivo) was “(13.9) %”, the “≥1 TEAE, (%)” value ([5]; in vivo) was “(89.3) %” and the “Deaths, (%)” value [5, 11] was “(0.4) %”. The “Influenza, (%)” value [5, 11] was “(3.9) %”, the “Upper respiratory tract infection, (%)” value [5, 11] was “(9.6) %” and the “Urinary tract infection, (%)” value [5, 11] was “(6.8) %”. For the same compound, the “delay compared with the abaloparatide group to achieve the same level of BMD increase at total hip and femoral neck” value ([7]; overweight patients) was “about 6 months” and the “BMD increase as compared to placebo” value [7, 12] was “significantly greater BMD increase”.
